Test results as given in the supplement of paper PMC11451515.

Tests used:
Conditions in all cases: 48 h
P12-Ichikawa [1] = test: AUC of viability dose-response curve (% viability x log10 dose units); higher = less sensitive
Summary of the method: (§1)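 Library compounds in DMSO were applied for 48 h at 37°C at 11 threefold doses (47 μM to 0.79 nM) to medium-adapted leukemia cells in 1536-well plates holding 500 or 1000 cells/well. Luminescence from CellTiter-Glo One was normalised plate by plate against DMSO and cell-free wells. Area under the curve came from trapezoidal integration of a log-logistic fit, after scaling curves that rose above full viability and discarding those that failed quality control. The fit had four parameters and used log10 doses.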

SEM cells [2] = test: as above
Summary of the method: as §1

NOMO1 [3] = test: as above
Summary of the method: as §1

P12-Ichikawa [4] = test: cell viability relative to DMSO control; higher = less cytotoxic
Summary of the method: (§2)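 Cells were incubated for 48 h at 37°C before CellTiter-Glo One luminescence was read. The cells were NOMO1 or SEM (500 cells/well) or P12-Ichikawa (1000 cells/well) leukemia cells, adapted for at least four passages in each medium and seeded in 1536-well plates (5 μl). Dosing used library compounds in DMSO applied by pin over 11 threefold points, 47 μM to 0.79 nM. Viability is the per-plate percentage of DMSO wells, with cell-free wells as background.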

SEM cells [5] = test: as above
Summary of the method: as §2

NOMO1 [6] = test: as above
Summary of the method: as §2

C[C@]12CC[C@H]3[C@@H](CC(=C)\C4=C\C(=O)\C=C/[C@]34C)[C@@H]1CCC2=O
AUC of viability dose-response curve
Conditions	NOMO1 [3]	P12-Ichikawa [1]	SEM cells [2]
HPLM + 10% dialyzed FBS	463	466	426
RPMI 5 mM glucose + 10% FBS	429	466	438
RPMI 5 mM glucose + 10% dialyzed FBS	444	461	437

cell viability [%]
Conditions	NOMO1 [6]	P12-Ichikawa [4]	SEM cells [5]
HPLM + 10% dialyzed FBS, 0.000781 µM	111	105	89.7
HPLM + 10% dialyzed FBS, 0.00234 µM	105	107	92.6
HPLM + 10% dialyzed FBS, 0.00702 µM	92.2	105	96.3
HPLM + 10% dialyzed FBS, 0.0211 µM	107	107	105
HPLM + 10% dialyzed FBS, 0.0632 µM	105	107	107
HPLM + 10% dialyzed FBS, 0.19 µM	99.1	101	92.8
HPLM + 10% dialyzed FBS, 0.569 µM	99.1	104	94.4
HPLM + 10% dialyzed FBS, 1.71 µM	113	103	90.7
HPLM + 10% dialyzed FBS, 5.12 µM	119	98	97.8
HPLM + 10% dialyzed FBS, 15.4 µM	99.6	99	34.9
HPLM + 10% dialyzed FBS, 46.1 µM	52.8	79.9	64.8
RPMI 5 mM glucose + 10% FBS, 0.000781 µM	99.5	96.3	111
RPMI 5 mM glucose + 10% FBS, 0.00234 µM	89.3	110	90.8
RPMI 5 mM glucose + 10% FBS, 0.00702 µM	95.8	105	89.2
RPMI 5 mM glucose + 10% FBS, 0.0211 µM	90.4	102	96.9
RPMI 5 mM glucose + 10% FBS, 0.0632 µM	92.6	108	98
RPMI 5 mM glucose + 10% FBS, 0.19 µM	92.1	96.2	95.3
RPMI 5 mM glucose + 10% FBS, 0.569 µM	97.8	102	104
RPMI 5 mM glucose + 10% FBS, 1.71 µM	90.6	107	106
RPMI 5 mM glucose + 10% FBS, 5.12 µM	81.6	101	114
RPMI 5 mM glucose + 10% FBS, 15.4 µM	80.3	98	36.5
RPMI 5 mM glucose + 10% FBS, 46.1 µM	74.9	63.7	54.6
RPMI 5 mM glucose + 10% dialyzed FBS, 0.000781 µM	75.8	96.7	98.1
RPMI 5 mM glucose + 10% dialyzed FBS, 0.00234 µM	100	107	86.9
RPMI 5 mM glucose + 10% dialyzed FBS, 0.00702 µM	99.7	99.6	96.4
RPMI 5 mM glucose + 10% dialyzed FBS, 0.0211 µM	108	101	110
RPMI 5 mM glucose + 10% dialyzed FBS, 0.0632 µM	98.3	99.1	103
RPMI 5 mM glucose + 10% dialyzed FBS, 0.19 µM	91.6	95.2	101
RPMI 5 mM glucose + 10% dialyzed FBS, 0.569 µM	94.4	88.5	115
RPMI 5 mM glucose + 10% dialyzed FBS, 1.71 µM	102	103	111
RPMI 5 mM glucose + 10% dialyzed FBS, 5.12 µM	92.5	102	115
RPMI 5 mM glucose + 10% dialyzed FBS, 15.4 µM	86.4	94.5	33.2
RPMI 5 mM glucose + 10% dialyzed FBS, 46.1 µM	61.8	57.4	59.9

CCn1nnc2c(N3CCOCC3)nc(-c3ccc(NC(=O)Nc4ccc(C(=O)N5CCN(C)CC5)cc4)cc3)nc21
AUC of viability dose-response curve
Conditions	NOMO1 [3]	P12-Ichikawa [1]	SEM cells [2]
HPLM + 10% dialyzed FBS	309	391	330
RPMI 5 mM glucose + 10% FBS	395	353	296
RPMI 5 mM glucose + 10% dialyzed FBS	341	352	337

cell viability [%]
Conditions	NOMO1 [6]	P12-Ichikawa [4]	SEM cells [5]
HPLM + 10% dialyzed FBS, 0.000781 µM	117	103	109
HPLM + 10% dialyzed FBS, 0.00234 µM	109	109	104
HPLM + 10% dialyzed FBS, 0.00702 µM	94.2	99.8	87.4
HPLM + 10% dialyzed FBS, 0.0211 µM	67.2	92.6	82.6
HPLM + 10% dialyzed FBS, 0.0632 µM	63.4	91.6	61.5
HPLM + 10% dialyzed FBS, 0.19 µM	53.9	76.3	58.2
HPLM + 10% dialyzed FBS, 0.569 µM	101	101	103
HPLM + 10% dialyzed FBS, 1.71 µM	65.7	71	54.3
HPLM + 10% dialyzed FBS, 5.12 µM	60.7	76	54.1
HPLM + 10% dialyzed FBS, 15.4 µM	51.4	70.2	49.8
HPLM + 10% dialyzed FBS, 46.1 µM	48	68.9	41.9
RPMI 5 mM glucose + 10% FBS, 0.000781 µM	90.8	97.5	124
RPMI 5 mM glucose + 10% FBS, 0.00234 µM	107	98.4	116
RPMI 5 mM glucose + 10% FBS, 0.00702 µM	94.1	99.4	90.5
RPMI 5 mM glucose + 10% FBS, 0.0211 µM	85.6	83.6	81.3
RPMI 5 mM glucose + 10% FBS, 0.0632 µM	76.5	72.3	64.2
RPMI 5 mM glucose + 10% FBS, 0.19 µM	67.7	55.3	56.2
RPMI 5 mM glucose + 10% FBS, 0.569 µM	105	94.3	114
RPMI 5 mM glucose + 10% FBS, 1.71 µM	79.9	55.2	49.5
RPMI 5 mM glucose + 10% FBS, 5.12 µM	72.4	54.9	48.4
RPMI 5 mM glucose + 10% FBS, 15.4 µM	69.9	56.9	46.4
RPMI 5 mM glucose + 10% FBS, 46.1 µM	61.2	59.4	40.5
RPMI 5 mM glucose + 10% dialyzed FBS, 0.000781 µM	89.3	93.7	101
RPMI 5 mM glucose + 10% dialyzed FBS, 0.00234 µM	97.2	106	95.9
RPMI 5 mM glucose + 10% dialyzed FBS, 0.00702 µM	89.7	88.5	79
RPMI 5 mM glucose + 10% dialyzed FBS, 0.0211 µM	75.3	70.6	71.6
RPMI 5 mM glucose + 10% dialyzed FBS, 0.0632 µM	60.9	69.9	60.3
RPMI 5 mM glucose + 10% dialyzed FBS, 0.19 µM	60.2	59.6	54.3
RPMI 5 mM glucose + 10% dialyzed FBS, 0.569 µM	89.8	103	123
RPMI 5 mM glucose + 10% dialyzed FBS, 1.71 µM	62.5	56.9	50.8
RPMI 5 mM glucose + 10% dialyzed FBS, 5.12 µM	53.5	58.8	49.5
RPMI 5 mM glucose + 10% dialyzed FBS, 15.4 µM	55.9	54.4	44.9
RPMI 5 mM glucose + 10% dialyzed FBS, 46.1 µM	56	50.1	47.8

NCCCC(N)(C(=O)O)C(F)F (stereo not given)
AUC of viability dose-response curve
Conditions	NOMO1 [3]	P12-Ichikawa [1]	SEM cells [2]
HPLM + 10% dialyzed FBS	454	462	446
RPMI 5 mM glucose + 10% FBS	443	448	460
RPMI 5 mM glucose + 10% dialyzed FBS	461	449	461

cell viability [%]
Conditions	HPLM + 10% dialyzed FBS	RPMI 5 mM glucose + 10% FBS	RPMI 5 mM glucose + 10% dialyzed FBS
NOMO1 [6], 0.000781 µM	–	123	121
NOMO1 [6], 0.00234 µM	–	137	112
NOMO1 [6], 0.00702 µM	–	122	115
NOMO1 [6], 0.0211 µM	–	125	113
NOMO1 [6], 0.0632 µM	–	132	126
NOMO1 [6], 0.19 µM	–	111	112
NOMO1 [6], 0.569 µM	–	125	108
NOMO1 [6], 1.71 µM	–	120	125
NOMO1 [6], 5.12 µM	–	109	100
NOMO1 [6], 15.4 µM	–	107	111
NOMO1 [6], 46.1 µM	–	95.1	90.1
P12-Ichikawa [4], 0.000781 µM	116	123	114
P12-Ichikawa [4], 0.00234 µM	116	125	122
P12-Ichikawa [4], 0.00702 µM	113	123	113
P12-Ichikawa [4], 0.0211 µM	117	121	118
P12-Ichikawa [4], 0.0632 µM	118	114	113
P12-Ichikawa [4], 0.19 µM	110	122	109
P12-Ichikawa [4], 0.569 µM	113	113	110
P12-Ichikawa [4], 1.71 µM	112	113	105
P12-Ichikawa [4], 5.12 µM	108	115	105
P12-Ichikawa [4], 15.4 µM	101	107	105
P12-Ichikawa [4], 46.1 µM	98.4	109	100
